According to patent US20250144067A1, “PERSONALIZED STARVATION THERAPY FOR CANCER” (Faeth Therapeutics, Inc., priority 2021, published 2025):
Where a name gives a salt, the structure may show the parent alone. Read-outs that look alike come from different tables or passages of the source.

Key:
[1] = test system: NCI-H292 lung cancer cells; assay: FDA drug screening, complete media vs cholesterol-free media without statin (TABLE 1); type: cell-based, human
[2] = test system: NCI-H292 lung cancer cells; assay: FDA drug screening, complete media vs cholesterol-free media with simvastatin (TABLE 2); type: cell-based, human
[3] = NCI-H292 cells, cholesterol-free media without statin, FDA drug library screen
[4] = NCI-H292 cells, complete media, FDA drug library screen
[5] = complete vs cholesterol-free media, >0 enhanced anti-cancer activity, about 0 neutral, <0 antagonist
[6] = NCI-H292 cells, drug in cholesterol-free media with simvastatin 0.04 μM
[7] = NCI-H292 cells, drug in complete media
[8] = complete media vs cholesterol-free media + simvastatin (0.04 μM), >0 enhanced anti-cancer activity, about 0 neutral, <0 antagonist
[9] = Complete minus Cholesterol-free, greater than 0 enhanced anti-cancer activity, about 0 neutral, below 0 antagonist
[10] = NCI-H292 cells, FDA drug library screen, cholesterol-free media without statin
[11] = NCI-H292 cells, FDA drug library screen, complete media
[12] = NCI-H292 cells, FDA drug library screen, cholesterol-free media with simvastatin 0.04 μM
[13] = Complete minus Cholesterol-free, >0 enhanced anti-cancer activity, about 0 neutral, <0 antagonist
[14] = complete media minus cholesterol-free media + simvastatin, >0 enhanced anti-cancer activity, about 0 neutral, <0 antagonist
[15] = Complete minus Cholesterol-free, greater than 0 enhanced anti-cancer activity, about 0 neutral, below 0 antagonists
[16] = NCI-H292 cells in cholesterol-free media without statin
[17] = NCI-H292 cells in complete media
[18] = NCI-H292 cells, FDA library drug in cholesterol-free media with simvastatin 0.04 μM
[19] = NCI-H292 cells, FDA library drug in complete media
[20] = NCI-H292 cells, cholesterol-free media with simvastatin 0.04 μM, FDA drug library screen (TABLE 2)
[21] = NCI-H292 cells, complete media, FDA drug library screen (TABLE 2)
[22] = complete media minus cholesterol-free media + simvastatin (0.04 μM), >0 enhanced anti-cancer activity, about 0 neutral, <0 antagonist
[23] = NCI-H292 cells, cholesterol-free media without statin
[24] = complete vs cholesterol-free media, greater than 0 enhanced anti-cancer activity, about 0 neutral, below 0 antagonists

c1cnc(N2CCN(Cc3ccc4c(c3)OCO4)CC2)nc1 [Piribedil]
Cholesterol-free [1, 3]: 0.8521
Complete [1, 4]: 1.367
Difference [1, 5]: 0.51
Cholesterol-free media + simvastatin (0.04 μM) [2, 6]: 1.189
Complete Media [2, 7]: 0.9878
Difference [2, 8]: −0.20

CC1CCCC(C)N1CCCC(O)(c1ccccc1)c1ccccn1 (stereo not drawn) [Pirmenol (hydrochloride)]
Difference [1, 9]: −0.15
Cholesterol-free [1, 10]: 0.8727
Complete [1, 11]: 0.7238
Cholesterol-free media + simvastatin (0.04 μM) [2, 12]: 1.664
Complete Media [2, 11]: 1.547
Difference [2, 8]: −0.12

Cc1cc(CC(C)CC(C)(C)C)n(O)c(=O)c1.NCCO (stereo not drawn) [Piroctone olamine]
Difference [1, 13]: −0.05
Cholesterol-free [1, 3]: 0.04765
Complete [1, 4]: 0.0002612
Cholesterol-free media + simvastatin (0.04 μM) ([2]; NCI-H292 cells, cholesterol-free media with simvastatin 0.04 μM, cell growth value in FDA drug screen): 0
Complete Media ([2]; NCI-H292 cells, complete media, cell growth value in FDA drug screen): 0.02737
Difference [2, 14]: 0.03

CN1C(C(=O)Nc2ccccn2)=C(O)c2ccccc2S1(=O)=O [Piroxicam]
Difference [1, 15]: −0.71
Cholesterol-free [1, 16]: 1.552
Complete [1, 17]: 0.8427
Cholesterol-free media + simvastatin (0.04 μM) [2, 18]: 1.433
Complete Media [2, 19]: 1.008
Difference [2, 8]: −0.42

O=C(O)C[C@H](O)C[C@H](O)/C=C/c1c(C2CC2)nc2ccccc2c1-c1ccc(F)cc1 [Pitavastatin (Calcium)]
Difference [1, 9]: −0.07
Cholesterol-free [1, 10]: 0.4408
Complete [1, 11]: 0.3693
Cholesterol-free media + simvastatin (0.04 μM) [2, 20]: 0.4883
Complete Media [2, 21]: 0.4437
Difference [2, 22]: −0.04

Clc1ccc(CCCOCCCN2CCCCC2)cc1 [Pitolisant (hydrochloride)]
Cholesterol-free [1, 3]: 0.9791
Complete [1, 4]: 1.232
Difference [1, 5]: 0.25
Cholesterol-free media + simvastatin (0.04 μM) [2, 12]: 0.442
Complete Media [2, 11]: 1.031
Difference [2, 14]: 0.59

CC(C)(C)C(=O)OCOC(=O)[C@@H]1N2C(=O)[C@@H](/N=C/N3CCCCCC3)[C@H]2SC1(C)C [Pivmecillinam (hydrochloride)]
Difference [1, 15]: −0.49
Cholesterol-free [1, 16]: 1.646
Complete [1, 17]: 1.161
Cholesterol-free media + simvastatin (0.04 μM) [2, 6]: 1.219
Complete Media [2, 7]: 1.044
Difference [2, 8]: −0.18

CN1CCC(=C2c3ccccc3CCc3sccc32)CC1 [Pizotifen]
Cholesterol-free [1, 23]: 1.127
Complete ([1]; NCI-H292 cells, complete media): 0.7811
Difference [1, 24]: −0.35
Cholesterol-free media + simvastatin (0.04 μM) [2, 12]: 0.849
Complete Media [2, 11]: 1.216
Difference [2, 14]: 0.37

c1cc(CN2CCCNCCNCCCNCC2)ccc1CN1CCCNCCNCCCNCC1 [Plerixafor (octahydrochloride)]
Difference [1, 9]: −0.08
Cholesterol-free [1, 10]: 1.221
Complete [1, 11]: 1.137
Cholesterol-free media + simvastatin (0.04 μM) [2, 18]: 1.159
Complete Media [2, 19]: 0.812
Difference [2, 8]: −0.35

c1cc(CN2CCCNCCNCCCNCC2)ccc1CN1CCCNCCNCCCNCC1 [Plerixafor]
Cholesterol-free [1, 23]: 1.296
Complete ([1]; NCI-H292 cells, complete media): 0.935
Difference [1, 24]: −0.36
Cholesterol-free media + simvastatin (0.04 μM) [2, 12]: 1.17
Complete Media [2, 11]: 1.011
Difference [2, 8]: −0.16

COc1cc([C@@H]2c3cc4c(cc3[C@H](O)[C@H]3COC(=O)[C@H]23)OCO4)cc(OC)c1OC [Podofilox]
Difference ([1]; Complete minus Cholesterol-free, […]): −0.01
Cholesterol-free [1, 3]: 0.05355
Complete [1, 4]: 0.04847
Cholesterol-free media + simvastatin (0.04 μM) [2, 20]: 0.1667
Complete Media [2, 21]: 0.1215
Difference ([2]; complete media minus cholesterol-free media + simvastatin (0.04 μM), […]): −0.05

Nc1cccc2c1C(=O)N(C1CCC(=O)NC1=O)C2=O (stereo not drawn) [Pomalidomide]
Difference [1, 13]: −0.27
Cholesterol-free [1, 23]: 1.37
Complete ([1]; NCI-H292 cells, complete media): 1.095
Cholesterol-free media + simvastatin (0.04 μM) [2, 20]: 1.093
Complete Media [2, 21]: 1.03
Difference [2, 22]: −0.06

Cc1ccc(C(=O)Nc2ccc(CN3CCN(C)CC3)c(C(F)(F)F)c2)cc1C#Cc1cnc2cccnn12 [Ponatinib]
Cholesterol-free [1]: 0.1141
Complete [1]: 0.07529
Difference [1]: −0.04
Cholesterol-free media + simvastatin (0.04 μM) [2]: 0.4683
Complete Media [2]: 0.4064
Difference [2]: −0.06
